One assay deals with ADAM17. The assay can be described thus: Soluble CD16a released from transfected HEK293 cells stably expressing human γ chain, ELISA (shedding). Format: cell-based. Particulars: untreated and PMA-treated HEK293 cells stably expressing human γ chain. The procedure:
FIG. 3. Effects of the engineered S197P mutation on CD16a and CD16b shedding. Transfected HEK293 (human embryonic kidney) cells separately expressed CD16b and CD16b/S197P (A) or CD16a and CD16a/S197P (B) at similar levels, as determined by flow cytometry (left panels). The different transfectants were treated with or without PMA (15 ng/ml for 30 minutes at 37° C.) and soluble levels of CD16 in the media supernatant were quantified by ELISA (right panels). Each treatment condition was repeated three times for each experiment and the data are representative of three independent experiments. Bar graphs show mean±SD. Statistical significance is indicated as ***P<0.001. […] Surface levels of L-selectin and CD16b/S197P on transfected and mock-transfected cells were measured using flow cytometry (histogram plots). Transfectants expressing L-selectin or L-selectin and CD16b/S197P were incubated in the presence or absence of PMA for 30 minutes at 37° C., and the mean fluorescence intensity (MFI) of L-selectin staining determined (bar graph). […] For all histogram plots, the x-axis=Log 10 fluorescence and the y-axis=cell number.
HEK293 cells (a human embryonic kidney cell line) and NK92 cells (a human NK cell line) (ATCC, Manassas, Va.) were cultured according to the depository's instructions. […] Construct expression was assessed by EGFP fluorescence and CD16 staining, as determined by flow cytometry. […]
A general note: In an ELISA, binding on a coated surface is turned into a signal by an enzyme label.

Another assay concerns NK92 cells. The assay can be described thus: Cell surface CD16a levels on transduced NK92 cells after activation, flow cytometry. The assay is classed as cell-based, human. The procedure:
FIG. 4. Effects of the engineered S197P mutation on CD16a shedding in NK cells. NK92 cells transduced with empty vector (vector only), CD16a, or CD16a/S197P were treated without (Unstim.) or with PMA (100 ng/ml) for 30 minutes at 37° C. (A), with IL-12 and IL-18 (100 ng/ml and 400 ng/ml, respectively) for 24 hours at 37° C. (B), or with Raji cells and rituximab for 60 minutes at 37° C. (C). Cell surface levels of CD16a were determined by flow cytometry. Isotype-matched negative control antibody staining is indicated by a dotted line. (D) Parent NK92 cells and transduced cells expressing CD16a or CD16a/S197P were treated with Raji cells and rituximab in the presence or absence of the ADAM17 inhibitor BMS566394 (5 μM) for 60 minutes at 37° C. Soluble CD16a levels were determined by ELISA. Each treatment condition was repeated three times and the data are representative of three independent experiments. Bar graphs show mean±SD. Statistical significance is indicated as ***P<0.001. (E) NK92 cells expressing CD16a or CD16a/S197P were stained with the anti-ADAM17 mAbs M220, 623, 633, or an isotype-matched negative control antibody, as indicated. (F) CD56^+CD45^+ NK cells derived from mock-transduced iPSCs (left panel) or iPSCs expressing recombinant CD16a or CD16a/S197P (right panels) were incubated with or without K562 target cells for four hours at 37° C. For all histogram plots, the x-axis=Log 10 fluorescence, the y-axis=cell number, and the data are representative of at least 3 independent experiments.
HEK293 cells (a human embryonic kidney cell line) and NK92 cells (a human NK cell line) (ATCC, Manassas, Va.) were cultured according to the depository's instructions. HEK293 cells were transiently transfected with pcDNA3.1 with or without CD16b, CD16b/S197P, and/or L-selectin using Lipofectamine 2000 (Invitrogen, Carlsbad, Calif.) according to the manufacturer's instructions. […] Construct expression was assessed by EGFP fluorescence and CD16 staining, as determined by flow cytometry. […]
A general note: Flow cytometry measures light scatter and fluorescence of single cells or particles in a stream.

Regarding “CD16a/S197P: Human CD16a (FcγRIIIa, SEQ ID NO:1) with serine-197 substituted by proline in the membrane proximal cleavage region; expressed recombinantly in cells”, the “soluble levels of receptor in media supernatant compared to CD16a” value in the assay on ADAM17 is recorded as “significantly lower levels”.
Turning to “CD16a: Wild-type human IgG Fc receptor CD16a (FcγRIIIa), valine allelic variant, recombinant comparator [reference compound]”, the “down-regulation in cell surface expression of CD16” value with NK92 cells (IL-12 100 ng/ml and IL-18 400 ng/ml, 24 hours at 37° C.) was “appreciable down-regulation”; with NK92 cells (PMA 100 ng/ml, 30 minutes at 37° C.), “marked down-regulation”; in the assay on NK92 cells (Raji cells treated with rituximab, 60 minutes at 37° C.), “induced the down-regulation”.

The values above are taken from patent publication US11370825B2, “Polypeptides, cells, and methods involving engineered CD16” (Regents of the University of Minnesota, priority 2014, dated 2022).
